In patent US7741124B2, “Detection procedures for fibrinogen and/or fibrinogen derivatives” (priority 2003, dated 2010):

How the values were obtained:
Format in all cases: biochemical
fibrinogen = molecular target: T1, fibrinogen (Homo sapiens, UniProt P02671+P02675+P02679); experiment: FIATA optimization: turbidity in dependence of vancomycin concentration
T1 construct: pooled patient plasma (P-Pool, n=32 single plasmas); from tissue; host or cells: pooled citrated patient plasma (P-Pool, Fbgen-Pool-Plasma)
T1 sequence (P02671 20-644 isoform P02671-2 limits assumed): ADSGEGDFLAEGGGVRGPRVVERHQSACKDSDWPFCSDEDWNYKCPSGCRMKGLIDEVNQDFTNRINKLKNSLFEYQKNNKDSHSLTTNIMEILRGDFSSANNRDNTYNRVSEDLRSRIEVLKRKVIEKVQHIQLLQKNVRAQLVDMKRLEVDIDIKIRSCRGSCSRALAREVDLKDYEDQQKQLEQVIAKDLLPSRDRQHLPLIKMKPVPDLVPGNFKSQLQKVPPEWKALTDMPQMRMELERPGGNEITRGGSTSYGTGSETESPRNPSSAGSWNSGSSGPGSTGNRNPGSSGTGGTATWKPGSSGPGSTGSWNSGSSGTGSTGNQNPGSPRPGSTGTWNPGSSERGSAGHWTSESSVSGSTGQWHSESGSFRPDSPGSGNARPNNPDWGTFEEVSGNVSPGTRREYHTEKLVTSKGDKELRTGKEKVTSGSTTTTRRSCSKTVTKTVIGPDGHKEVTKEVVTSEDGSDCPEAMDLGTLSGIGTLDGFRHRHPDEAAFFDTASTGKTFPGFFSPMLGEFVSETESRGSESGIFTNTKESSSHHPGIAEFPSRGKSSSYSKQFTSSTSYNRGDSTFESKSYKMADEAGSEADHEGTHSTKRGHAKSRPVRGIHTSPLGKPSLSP
T1 sequence (P02675 31-491): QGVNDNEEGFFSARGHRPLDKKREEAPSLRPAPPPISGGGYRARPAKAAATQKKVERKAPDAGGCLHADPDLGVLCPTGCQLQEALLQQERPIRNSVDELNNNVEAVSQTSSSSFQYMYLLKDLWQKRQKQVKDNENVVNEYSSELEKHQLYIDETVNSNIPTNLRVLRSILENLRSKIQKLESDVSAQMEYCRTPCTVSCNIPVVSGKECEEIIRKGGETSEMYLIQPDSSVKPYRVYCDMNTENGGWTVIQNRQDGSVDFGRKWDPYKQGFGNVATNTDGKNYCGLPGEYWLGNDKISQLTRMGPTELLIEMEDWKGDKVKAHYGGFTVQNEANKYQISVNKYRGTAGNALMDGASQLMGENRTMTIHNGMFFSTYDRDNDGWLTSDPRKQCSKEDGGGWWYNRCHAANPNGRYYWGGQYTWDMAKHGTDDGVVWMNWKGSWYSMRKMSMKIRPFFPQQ
T1 sequence (P02679 27-437 isoform P02679-2 limits assumed): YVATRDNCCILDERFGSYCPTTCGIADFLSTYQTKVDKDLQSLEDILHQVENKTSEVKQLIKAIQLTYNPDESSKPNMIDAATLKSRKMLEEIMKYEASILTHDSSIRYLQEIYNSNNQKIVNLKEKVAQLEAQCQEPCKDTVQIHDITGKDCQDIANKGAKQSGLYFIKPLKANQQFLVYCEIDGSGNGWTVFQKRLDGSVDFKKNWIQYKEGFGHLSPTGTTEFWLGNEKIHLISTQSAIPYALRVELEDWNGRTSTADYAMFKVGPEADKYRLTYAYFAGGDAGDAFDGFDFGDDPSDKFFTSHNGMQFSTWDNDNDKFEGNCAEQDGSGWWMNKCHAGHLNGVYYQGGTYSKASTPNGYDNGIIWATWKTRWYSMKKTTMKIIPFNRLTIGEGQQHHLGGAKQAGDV
Method: 50 μl P-Pool or 1:2 or 1:4 diluted (in 6% BSA-PBS) P-Pool were incubated with 50 μl 0-6.8 mM vancomycin in PBS. The turbidity increase at 405 nm was determined after 1 min (RT). 25 μl Fbgen-Pool (300% of norm; 8.4 g/l) were incubated with 125 μl 0.55 mM, 1.1 mM, or 2.2 mM vancomycin in PBS for 1 min (RT). Then the turbidity increase at 405 nm was determined.

plasmatic fibrinogen = molecular target: T2, plasmatic fibrinogen (Homo sapiens, UniProt P02671+P02675+P02679)
T2 construct: pooled patient plasma (P-Pool, n=32 single plasmas); from tissue; host or cells: pooled citrated patient plasma (P-Pool, Fbgen-Pool-Plasma)
T2 sequence (P02671 20-644 isoform P02671-2 limits assumed): T1 sequence (P02671 20-644 isoform P02671-2 limits assumed)
T2 sequence (P02675 31-491): T1 sequence (P02675 31-491)
T2 sequence (P02679 27-437 isoform P02679-2 limits assumed): T1 sequence (P02679 27-437 isoform P02679-2 limits assumed)
Method: 25 μl of 143% (4.0 g/l) P-Pool were incubated with 25 μl 0-50 mM vancomycin in PBS, 50 μl PBS, 0.1% Triton X 100® and 50 μl 850 mM KCl in H2O for 1 min (RT). The turbidity at 405 nm was determined. […] For pH-studies 5 ml P-Pool were mixed with 5 ml PBS and 0-1750 μl 1 M NaHCO3, pH 8.6.
5 ml P-Pool were incubated with 5 ml 4.4 mM vancomycin in PBS for 3 min (RT). Then the reaction mixture was centrifuged at 2500 g (4000 rpm) for 10 min. The supernatant was separated from the precipitate. The precipitate was not washed or was washed 3× with dest. H2O (resuspension, centrifugation, resuspension, . . . ). The unwashed precipitate was solubilized by addition of 500 μl 1 M NaHCO3, pH 8.6, and 4500 μl PBS; the washed precipitate was solubilized by addition of 300 μl 1 M NaHCO3 to 1700 μl in dest. H2O resuspended precipitate. 3 preparations of washed precipitate were also dried at room temperature and the dried precipitates were weighed. The solubilized precipitate and the supernatant were functionally analyzed for fibrinogen. 100 μl 1 M NaHCO3, pH 8.6 were added to 400 μl of the solubilized unwashed precipitate and this solution, the solubilized washed precipitate and the supernatant were analyzed for total protein, albumin concentration, and pseudocholinesterase activity in a Hitachi 917 analyzer, Roche, Basel, Switzerland and for vancomycin in an Integra 800 (Fluorescence Polarisation Immuno Assay); electrophoreses were performed in an agarose gel-based Hydrasis LC-Electrophoresis system (Sebia, Fulda, Germany). For control, 1 ml pooled serum was incubated with 1 ml 4.4 mM vancomycin in PBS, and the vancomycin conc. was determined.

t-PA = experiment: Stimulation of t-PA by vancomycin-precipitated plasma, plasma system
Method: 25 μl P-Pool were incubated with 25 μl 0-50 mM vancomycin in PBS and 50 μl 1000 IU/ml t-PA in PBS, 0.1% Triton X 100® and 25 μl 0 mM or 15 mM chloramine-T® for 30 min (RT). Then 25 μl 2.7 mM Vai-Leu-Lys-pNA, 1.7 M KCl were added and the resulting plasmin activity was determined by measuring linear absorbance increase/min RT in a microtiterplate reader.

[1] = after 1+1 incubation with 4.4 mM vancomycin in PBS

CN[C@H](CC(C)C)C(=O)N[C@H]1C(=O)N[C@@H](CC(N)=O)C(=O)N[C@H]2C(=O)N[C@H]3C(=O)N[C@H](C(=O)N[C@H](C(=O)O)c4cc(O)cc(O)c4-c4cc3ccc4O)[C@H](O)c3ccc(c(Cl)c3)Oc3cc2cc(c3O[C@@H]2O[C@H](CO)[C@@H](O)[C@H](O)[C@H]2O[C@H]2C[C@](C)(N)[C@H](O)[C@H](C)O2)Oc2ccc(cc2Cl)[C@H]1O [vancomycin]
fibrinogen concentration at saturation of turbidity increase (fibrinogen; 68.8 μmoles of vancomycin given to 25 μl 300% Fbgen-Pool): about 4 g/l | own turbidity at 405 nm (fibrinogen; 4.4 mM vancomycin in PBS, 0% fibrinogen standard in BSA): < 50 mA | fibrinogen concentration at saturation of turbidity increase (fibrinogen; 137.5-275 μmoles of vancomycin): 6 to 8 g/L | stability of the turbidity increase (fibrinogen; vancomycin in plasma, RT): at least 10 min | fibrinogen precipitated (plasmatic fibrinogen; 4.4 mM vancomycin): 84% | fibrinogen remained in the plasma (plasmatic fibrinogen; 4.4 mM vancomycin): 16% | fibrinogen remained of initial 4.0 g/l (plasmatic fibrinogen; 4.4 mM vancomycin, corrected for 1+1 dilution): 0.64 g/L | fibrinogen conc. in the supernatant (plasmatic fibrinogen; 1 part plasma and 1 part 4.4 mM vancomycin in PBS): 0.32 g/L | increase of turbidity of citrated plasma (plasmatic fibrinogen; 25 μl 0-50 mM vancomycin, 25 μl P-Pool, 1 min RT): up to 20 fold | vancomycin found in pooled serum (plasmatic fibrinogen; [1]): 2.1 mM | vancomycin found in supernatant of pooled plasma (plasmatic fibrinogen; [1]): 0.17 mM | vancomycin attached to 5 μM precipitating fibrinogen (plasmatic fibrinogen; of 2.2 mM vancomycin in the reaction mixture): 80 µM | vancomycin molecules/fibrinogen molecule (plasmatic fibrinogen; washed precipitate): 16 | stimulation of t-PA (t-PA; 1 part plasma with 1 part 1.5-5 mM vancomycin, oxidation with 1 part 15 mM chloramine-T): up to 20 fold | increase of t-PA activity (t-PA; without oxidation, 2 mM vancomycin, final incubation 158 min (RT)): 2.5 fold
